Data on 4 molecules can be found in publication PMC8877061, “Antifungal and Antibiofilm Activity of Cyclic Temporin L Peptide Analogues against Albicans and Non-Albicans Candida Species” (Pharmaceutics, 2022).

Converted amounts (≈) assume the structure as drawn. Positions of bridges follow the written chain, without caps; N, C: chain ends. Non-standard residues stand in square brackets, D forms with d. Residues, ends and D or L forms follow the SMILES beside them. Triazole bridges read from a SMILES are 1,4-linked. Lys(N3) = [N-]=[N+]=NCCCC[C@H](N)C(=O)O; Pra = C#CC[C@H](N)C(=O)O

Data set [1] in a line: Circular dichroism in liposomes mimicking eukaryotic membranes. In kind it is physicochemical. The settings on record: SUVs DOPC:Chol 70:30, peptide 80 μM; for helical content: CD, phosphate buffer 5 mM pH 7.4, 25 °C, from [θ]222. On the procedure:
The circular dichroism spectra of the selected peptides (3, 7, 15 and 16) were recorded in small unilamellar vesicles (SUVs) composed of PE/PC/PI/Ergosterol (5:4:1:2, w/w/w/w, final lipid concentration = 0.01 mM) and DOPC/Chol (70:30, ratio in moles, final lipid concentration = 0.1 mM), between 190 and 260 nm on a JASCO J-710 CD spectropolarimeter at 25 °C using quartz cells with a 0.1-cm path length. The SUVs were prepared as reported in the following protocol. Once the lipid films were prepared as described above, they were hydrated with a phosphate buffer (5 mM, pH 7.4) (DOPC:Chol) or water (PE/PC/PI/Ergosterol) for 1 h and sonicated for 40 min. The peptides were dissolved in water to form a sample with a concentration of 80 μM in SUVs made of DOPC/Chol, while a peptide concentration of 10 μM was used in SUVs made of PE/PC/PI/Ergosterol. We accumulated the data three times, and all spectral data were subtracted from the background. Each spectrum converted the signal to the mean molar ellipticity, and we calculated the ratio of the ellipticities at 222 and 208 nm to discriminate between the monomeric and oligomeric states of the helices. The helix content was calculated as follows: [θ]222/(−40,000[1 − 2.5/n)], where [θ]222 is the ellipticity measurement at 222 nm and n is the number of amino acid residues.
Background: CD spectra are sensitive to the conformation of chiral molecules.

The test system of data set [2] is G. mellonella larvae infected by different Candida species. Nature of the data set: G. mellonella fungal infection model (Kaplan-Meier survival). The class given is in vivo. Conditions: for in vivo effectiveness on infected G. mellonella larvae: 10^6 yeast cells with 12.5 μM peptide, 10 μL injected, 37 °C, different Candida species. The method, then: The G. mellonella fungal infection model was performed as described previously. We first determined the lethal concentrations of C. albicans, C. auris, C. glabrata, C. tropicalis and C. parapsilosis inocula by injecting concentrations of 10^4, 10^5 or 10^6 cells/larvae. The larvae were kept in Petri dishes at 37 °C, and survival was monitored for 3 d. A system of scoring already proposed by Loh et al. based on survival, mobility, degree of melanization, and the ability to produce a cocoon was used to evaluate the physical state of the larvae for 3 days. To evaluate the effects of the five peptides on Candida infection and compare mortality, 10 μL of 10^6 yeast cells in a medium containing 12.5 μM of each peptide’s concentrations was injected into the last left proleg of the larvae and incubated at 37 °C. The larvae were incubated at 37 °C and monitored daily for survival.

In another data set the test system is C. albicans cells. As to the kind of experiment: Zeta potential of fungal cells by dynamic light scattering. In kind it is cell-based. The arrangement: Calculated Zeta Potential: unit not given here. Conditions: for Experimental Zeta Potential (ς): C. albicans cells after peptide 25 μM, PBS 0.001×, electrophoretic light scattering; for Calculated Zeta Potential: theoretical: charge of the peptide added to the zeta potential of the C. albicans cells. On the procedure:
The zeta potential of the fungal cells was recorded in a suspension (0.5 × 10^6 cells/mL) using the electrophoretic light scattering technique on a Zetasizer Nano ZS analyzer. Before the peptide treatment, the cells were suspended using a 0.05% trypsin solution in 0.53 mM EDTA. The concentration of the suspended cells in a buffered phosphate saline (PBS, 1.7 mM KH2PO4, 5.2 mM Na2HPO4 and 150 mM NaCl) was determined on a hemocytometer. The measurements were performed by diluting the cells with PBS 0.001× and treating them with the peptide at a concentration of 25 μM.

Data set [3] is described as follows: ANTS/DPX leakage, fungal membrane-like LUVs. Conditions: for liposome leakage (ANTS release), fungal membrane-like LUVs: peptide 20 μM, PE/PC/PI/ergosterol LUVs 0.1 mM lipid, PBS pH 7.2, 10 min, fluorescence 385/512 nm; for leakage activity against liposomes mimicking the fungal membrane: PE/PC/PI/ergosterol LUVs, concentration not given. The method, then: ANTS/DPX-entrapped large unilamellar vesicles (LUVs) composed of PE/PC/PI/Ergosterol (5:4:1:2, w/w/w/w) and Chol/DOPC (70:30, ratio in moles) were prepared by the extrusion method as previously described in [28]. First, the lipid films were prepared by dissolving lipids in the proper ratio in chloroform to have a final concentration of 0.1 mM and then dried under a nitrogen gas stream. The probes of ANTS (12.5 mM) and DPX (45 mM) dissolved in water were added to the lipid films, and the mixture was freeze-dried overnight. The lipid films with encapsulated ANTS and DPX were hydrated with a PBS 1× buffer (pH = 7.2), vortexed for 1 h, freeze-thawed 6 times and extruded 10 times through 0.1-μm pore size polycarbonate filters to obtain the LUVs. The LUVs with entrapped ANTS and DPX were separated from the free ANTS and DPX by gel filtration chromatography on a Sephadex G-50 column (1.5 × 10 cm). The assay was based on the measurement of dequenching of ANTS by DPX when the LUVs were incubated with peptide concentrations of 5, 10, 15, 20, 30 and 50 μM. The increase in ANT fluorescence was recorded at an excitation fluorescence at 385 nm (slit width: 5 nm) and a fluorescence emission at 512 nm (slit width: 5 nm) for 10 min after the addition of the peptide. The destruction of all LUVs and the complete release of ANTs were obtained after treatment with 10% Triton-X. The percentage of liposome leakage was calculated as %leakage = (Fi − F0)/(Ft − F0), where F0 represents the fluorescence of the intact LUVs before the addition of the peptide and Fi and Ft are the intensities of the fluorescence achieved after peptide and Triton-X treatment, respectively.

A further data set has as its system C. parapsilosis DSM 5784. In kind it is cell-based. The settings on record: DSM 5784, 24 h.
The next data set concerns C. albicans ATCC 90028. The class given is cell-based. Conditions: ATCC 90028, 24 h. On the procedure: C. albicans ATCC 90028, C. auris DSM 21092, C. glabrata DSM 11226, C. tropicalis DSM11951 and C. parapsilosis DSM 4874 grown on YPD Agar (1% w/v yeast extract, 2% w/v peptone, 2% w/v glucose, 1.5% Agar) were cultured in Tryptone soya broth supplemented with 0.1% glucose for 16–18 h at 37 °C, washed twice using sterile phosphate-buffered saline (PBS) and standardized to […] as required for the experiments. RPMI1640 medium (Thermo Fisher Scientific, Waltham, MA, USA) buffered to a pH of 7.0 with 0.165 M MOPS was used for growing the biofilms of all Candida species.
The antifungal activity of peptides against all five Candida species was determined according to CLSI-M27-A3 [33], as reported previously. Briefly, the compounds were tested at concentrations ranging from […] to 50 μM, and the organism suspensions were adjusted to an inoculum of 10^6 cell/mL at OD 590 nm in RPMI 1640, added to the 96-well plate and incubated at 37 °C for 24 h. The minimum inhibitory concentration (MIC) values were determined as the lowest concentration inhibiting fungal growth at 590 nm using a microplate reader (Synergy™ H4; BioTek Instruments, Inc., Winooski, VT, USA). […] The MFC was the lowest concentration that yielded no colony growth on the agar. The MFC/MIC ratio was calculated to determine whether the substance had fungistatic (MFC/MIC ≥ 4) or fungicidal (MFC/MIC < 4) activity.

Turning to `CC(C)C[C@H](NC(=O)[C@@H]1CCCCn2cc(nn2)C[C@H](NC(=O)[C@H](CCCCN)NC(=O)[C@H](CO)NC(=O)[C@H](Cc2ccccc2)NC(=O)[C@H](Cc2c[nH]c3ccccc23)NC(=O)[C@@H]2CCCN2C(=O)[C@@H](NC(=O)[C@@H](N)Cc2ccccc2)C(C)C)C(=O)N[C@H](CC(C)C)C(=O)NCC(=O)N[C@@H](CCCNC(=N)N)C(=O)N1)C(N)=O` [compound 7] (H-FVPWFSK[Pra][dL]GR[Lys(N3)]L-NH2; triazole 8-12; N-terminus assumed), the helical content in data set [1] is reported as ~ 23%. Besides, the “in vivo effectiveness on infected G. mellonella larvae” value in data set [2] is “in vivo effectiveness”. In addition, in the data set on C. albicans cells, the “Experimental Zeta Potential (ς)” value is on record as −4.5 ± 1.6 mV and the “Calculated Zeta Potential” value is −3.2 ± 0.5. For the same molecule, in data set [3], the “liposome leakage (ANTS release), fungal membrane-like LUVs” value (“liposome leakage (ANTS release)” for short) is recorded as “lower ANTS release”. In the data set on C. parapsilosis DSM 5784, the “MFC, C. parapsilosis DSM 5784” value turned out to be 50 µM (≈ 79.9 µg/mL).

Consider `CC[C@H](C)[C@H](NC(=O)[C@H](CCCNC(=N)N)NC(=O)[C@@H]1CCCCNC(=O)CC[C@H](NC(=O)[C@H](Cc2ccccc2)NC(=O)[C@H](Cc2c[nH]c3ccccc23)NC(=O)[C@@H]2CCCN2C(=O)[C@@H](NC(=O)[C@@H](N)Cc2ccccc2)C(C)C)C(=O)N[C@@H](CCCCN)C(=O)N[C@@H](Cc2ccccc2)C(=O)N[C@H](CC(C)C)C(=O)N1)C(=O)N[C@@H](CC(C)C)C(N)=O` [compound 15] (H-FVPWFEKF[dL]KRIL-NH2; lactam 6-10; N-terminus assumed), for which the helical content in data set [1] was ~ 48%. Further, in data set [1] (>1 = helical aggregates), the “ratio of the ellipticities at 222 and 208 nm” value was “greater than 1”. In addition, in data set [2], the “in vivo effectiveness on infected G. mellonella larvae” value is reported as “in vivo effectiveness”. In the data set on C. albicans cells, the “Experimental Zeta Potential (ς)” value was 13.5 ± 3.4 mV and the “Calculated Zeta Potential” value is −3.2 ± 0.5. Also, the “MFC, C. albicans ATCC 90028” value in the data set on C. albicans ATCC 90028 is reported as above 50 µM. In data set [3], the “leakage activity against liposomes mimicking the fungal membrane” value was “less than 20%” and the “liposome leakage (ANTS release)” value is recorded as “lower ANTS release”. In addition, in the data set on C. parapsilosis DSM 5784, the “MFC, C. parapsilosis DSM 5784” value stood at 50 µM (≈ 85.2 µg/mL).

For the molecule `CC[C@H](C)[C@H](NC(=O)[C@H](CCCNC(=N)N)NC(=O)[C@@H]1CSSC[C@H](NC(=O)[C@H](Cc2ccccc2)NC(=O)[C@H](Cc2c[nH]c3ccccc23)NC(=O)[C@@H]2CCCN2C(=O)[C@@H](NC(=O)[C@@H](N)Cc2ccccc2)C(C)C)C(=O)N[C@@H](CCCCN)C(=O)N[C@@H](Cc2ccccc2)C(=O)N[C@H](CC(C)C)C(=O)N1)C(=O)N[C@@H](CC(C)C)C(N)=O` [compound 16] (H-FVPWFCKF[dL]CRIL-NH2; disulfide 6-10; N-terminus assumed), in data set [1] (25 °C), the “conformation by CD in DOPC:Chol liposomes” value is recorded as “random coil conformation”. In addition, the “in vivo effectiveness on infected G. mellonella larvae” value in data set [2] was “in vivo effectiveness”. Also, in the data set on C. albicans cells, the “Experimental Zeta Potential (ς)” value is −6.5 ± 0.2 mV and the “Calculated Zeta Potential” value was −3.2 ± 0.5. Further, the “MFC, C. albicans ATCC 90028” value in the data set on C. albicans ATCC 90028 is above 50 µM. The “liposome leakage (ANTS release)” value in data set [3] is “lower ANTS release”. Also, the “MFC, C. parapsilosis DSM 5784” value against C. parapsilosis DSM 5784 is recorded as above 50 µM.

Turning to `CC[C@H](C)[C@H](NC(=O)[C@H](CCCNC(=N)N)NC(=O)[C@@H]1CCC(=O)NCCCC[C@H](NC(=O)[C@H](Cc2ccccc2)NC(=O)[C@H](Cc2c[nH]c3ccccc23)NC(=O)[C@@H]2CCCN2C(=O)[C@@H](NC(=O)[C@@H](N)Cc2ccccc2)C(C)C)C(=O)N[C@@H](CCCCN)C(=O)N[C@@H](Cc2ccccc2)C(=O)N[C@H](CC(C)C)C(=O)N1)C(=O)N[C@@H](CC(C)C)C(N)=O` [compound 3] (H-FVPWFKKF[dL]ERIL-NH2; lactam 6-10; N-terminus assumed), the helical content in data set [1] is ~ 13%. Moreover, the “survival rate of infected larvae” value in data set [2] (12.5 μM, larvae infected by all strains, after 48 h) is “increased the survival rate”. The “in vivo effectiveness on infected G. mellonella larvae” value in data set [2] was “in vivo effectiveness”. For the same molecule, in the data set with C. albicans cells, the “Experimental Zeta Potential (ς)” value was 1.6 ± 0.3 mV and the “Calculated Zeta Potential” value was −3.2 ± 0.5. Besides, in data set [3], the “leakage activity against liposomes mimicking the fungal membrane” value is recorded as around 30% and the “liposome leakage (ANTS release)” value is listed as ~ 30%. The “MFC, C. parapsilosis DSM 5784” value with C. parapsilosis DSM 5784 came to 50 µM (≈ 85.2 µg/mL).
